Consider 15 compounds from the supplement of paper PMC5722580.

Assay [1] concerns HEK293-SIE STAT3 Y640F. In words: drug sensitivity score (inhibition of STAT3 luciferase reporter); higher = stronger inhibition. The settings on record: 6 h; IL6 0 ng/ml. On the procedure: (§1)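 HEK293 cells with a STAT3-inducible (SIE) luciferase reporter, stably expressing WT STAT3 (IL6 100 ng/ml) or Y640F STAT3 (no IL6), were incubated 6 h with drugs in 384-well plates (5-8 concentrations over a 10,000-fold range); luciferase was read with ONE-Glo. DSS is a normalised area under the dose-response curve; values are the mean of two experiments.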

Assay [2] relates to HEK293-SIE STAT3 WT. Described as above. The note with it: 6 h; STAT3: WT; IL6 100 ng/ml. On the procedure:
as §1

The subject of assay [3] is NK-92. The assay is described as follows: drug sensitivity score (viability inhibition); higher = more sensitive. The settings on record: 72 h; IL2 2.5 ng/ml. As to the method: (§2)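 NK-cell leukemia/lymphoma cell lines (3,000 cells/well) were cultured with IL2 2.5 ng/ml in 384-well drug plates (5-8 concentrations over a 10,000-fold range) for 72 h at 37 C; viability was read with CellTiter-Glo. DSS is a normalised area under the dose-response curve; the experiment was repeated twice.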

In assay [4] the test system is KHYG-1. Described as above. The settings on record: 72 h; IL2 2.5 ng/ml. On the procedure: as §2
For assay [5], the system named is KAI3. The description is as above. The settings on record: 72 h; IL2 2.5 ng/ml. On the procedure: as §2
The test system of assay [6] is NKL. The assay is described as above. The note with it: 72 h; IL2 2.5 ng/ml. On the procedure:
as §2

For assay [7], the system named is YT. The assay is described as above. The settings on record: 72 h; IL2 2.5 ng/ml. As to the method:
as §2

Assay [8] has as its system SNK6. The assay is described as above. The note with it: 72 h; IL2 2.5 ng/ml. On the procedure: as §2
Assay [9] deals with NK-YS. Described as above. The note with it: 72 h; IL2 2.5 ng/ml. On the procedure: as §2

In the case of `N#C/C(=C\c1ccc(O)c(O)c1)C(=O)NCc1ccccc1` [AG490], the drug sensitivity score in assay [1] was 1.9 DSS; in assay [2], 1.18 DSS; in assay [3], 9.21 DSS; in assay [4], 8.13 DSS; in assay [5], 8.31 DSS; in [6], 10.3 DSS. Further, the figures for the drug sensitivity score in assay [7], in assay [8] and in assay [9] were 8.84 DSS, 10.2 DSS and 13.3 DSS, respectively.

`CO[C@H]1C[C@@H]2CC[C@@H](C)[C@@](O)(O2)C(=O)C(=O)N2CCCC[C@H]2C(=O)O[C@H]([C@H](C)C[C@@H]2CC[C@@H](OCCO)[C@H](OC)C2)CC(=O)[C@H](C)/C=C(\C)[C@@H](O)[C@@H](OC)C(=O)[C@H](C)C[C@H](C)/C=C/C=C/C=C/1C` [Everolimus]: the drug sensitivity score in [1] stood at 8.9 DSS; in assay [2], 3.15 DSS; in assay [3] it was 1.19 DSS; in [4] it was 5.9 DSS; in assay [5], 6.6 DSS; in assay [6], 17.4 DSS. For the same compound, the drug sensitivity score was 11.8 DSS in assay [7], 12.2 DSS in assay [8] and 16.8 DSS in assay [9].

`C=CCn1c(=O)c2cnc(Nc3ccc(N4CCN(C)CC4)cc3)nc2n1-c1cccc(C(C)(C)O)n1` [MK1775]: the drug sensitivity score is 8.87 DSS in [1]; 9.88 DSS in assay [2]; 23 DSS in assay [3]; 24.5 DSS in assay [4]; 19.9 DSS in [5]; 22.5 DSS in assay [6]. Moreover, the drug sensitivity score in assay [7] worked out at 19.8 DSS; in [8], 19.7 DSS; in assay [9] it was 20.5 DSS.

For the compound `CC[C@H](Nc1ncnc2[nH]cnc12)c1nc2cccc(F)c2c(=O)n1-c1ccccc1` [Idelalisib], the drug sensitivity score in [1] amounted to 3.9 DSS; in assay [2], 0 DSS; in [3] it was 9.76 DSS; in assay [4] it was 0.4 DSS; in [5], 1.38 DSS; in assay [6] it was 1.96 DSS. Moreover, the drug sensitivity score turned out to be 1.42 DSS in [7], 5.48 DSS in assay [8] and 0.598 DSS in [9].

Regarding `Cc1cc(Nc2nc(N[C@@H](C)c3ncc(F)cn3)ncc2Cl)[nH]n1` [AZD1480], the drug sensitivity score in assay [1] turned out to be 8.77 DSS; in [2], 17.9 DSS; in assay [3], 7.65 DSS; in [4], 18.3 DSS; in assay [5] it was 17.4 DSS; in [6], 13.7 DSS. Further, the drug sensitivity score was determined as 6.65 DSS in [7], 12.1 DSS in assay [8] and 10.7 DSS in assay [9].

Consider `CO[C@@H](C(=O)N1Cc2[nH]nc(NC(=O)c3ccc(N4CCN(C)CC4)cc3)c2C1)c1ccccc1` [Danusertib], for which the drug sensitivity score in [1] turned out to be 5.2 DSS; in assay [2], 6.8 DSS; in assay [3], 6.91 DSS; in assay [4], 13 DSS; in [5], 7.82 DSS; in assay [6], 5.43 DSS. Moreover, the drug sensitivity score in assay [7] turned out to be 6.55 DSS; in [8] it was 14.4 DSS; in assay [9], 12.9 DSS.

With `N#CC[C@H](C1CCCC1)n1cc(-c2ncnc3[nH]ccc23)cn1` [Ruxolitinib], the drug sensitivity score in assay [1] amounted to 13.2 DSS; in assay [2], 34.1 DSS; in assay [3] it was 21.8 DSS; in assay [4], 30.5 DSS; in assay [5], 27.5 DSS; in assay [6] it was 26.9 DSS. In addition, the drug sensitivity score in assay [7] was found to be 15.8 DSS; in [8], 22.2 DSS; in assay [9], 19.5 DSS.

For the compound `C[C@H]1C[C@@H]2[C@H]([C@@H](O)C[C@@]3(C)[C@H]2CC[C@]3(O)C(=O)CO)[C@@]2(C)C=CC(=O)C=C12` [Methylprednisolone], the drug sensitivity score in assay [1] was 0.4 DSS; in assay [2] it was 0 DSS; in assay [3], 0 DSS; in assay [4], 10.5 DSS; in [5] it was 1.27 DSS; in assay [6], 16 DSS. The drug sensitivity score in assay [7] came to 8.81 DSS; in assay [8] it was 0.065 DSS; in [9], 3.19 DSS.

With `CNC(=O)c1ccccc1Sc1ccc2c(/C=C/c3ccccn3)n[nH]c2c1` [Axitinib], the drug sensitivity score in [1] is 0 DSS; in [2], 0 DSS; in assay [3], 6.72 DSS; in [4] it was 10.9 DSS; in assay [5] it was 10.9 DSS; in [6] it was 8.05 DSS. Besides, the drug sensitivity score was determined as 8.91 DSS in assay [7], 8.94 DSS in assay [8] and 10.2 DSS in [9].

Consider `C[C@@H]1CC(=O)c2c(ccc3c2C(=O)c2cccc(O)c2C3=O)C1` [STA-21], for which the drug sensitivity score in assay [1] was 11.5 DSS; in [2] it was 10.3 DSS; in assay [3], 4.92 DSS; in assay [4] it was 10 DSS; in [5], 2.22 DSS; in [6], 11.5 DSS. Besides, the drug sensitivity score stood at 5.75 DSS in assay [7], 2.24 DSS in assay [8] and 9.69 DSS in assay [9].

For the compound `CC(C)NC[C@@H](C(=O)N1CCN(c2ncnc3c2[C@H](C)C[C@H]3O)CC1)c1ccc(Cl)cc1` [GDC-0068], the drug sensitivity score in assay [1] came out at 0.85 DSS; in assay [2], 4.1 DSS; in [3], 0.75 DSS; in [4], 3.15 DSS; in [5], 0 DSS; in [6], 1.24 DSS. Further, the drug sensitivity score in assay [7] amounted to 0.319 DSS; in [8], 1.47 DSS; in [9], 1.41 DSS.

Consider `FC(F)c1nc2ccccc2n1-c1nc(N2CCOCC2)nc(N2CCOCC2)n1` [ZSTK474], for which the drug sensitivity score in assay [1] was 4.7 DSS; in assay [2], 2.77 DSS; in assay [3], 12.8 DSS; in [4], 2.23 DSS; in assay [5], 5.42 DSS; in assay [6] it was 9.94 DSS. The drug sensitivity score was found to be 7.9 DSS in assay [7], 7.75 DSS in assay [8] and 9.54 DSS in [9].

In the case of `Cn1cc(CNCC2CCN(c3ncc(C(=O)NO)cn3)CC2)c2ccccc21` [Quisinostat], the drug sensitivity score was found to be 1.9 DSS in assay [1]; 2.3 DSS in assay [2]; 13.8 DSS in assay [3]; 20.4 DSS in assay [4]; 16.1 DSS in [5]; 22 DSS in assay [6]. In addition, the drug sensitivity score in [7] worked out at 14.2 DSS; in assay [8] it was 13.3 DSS; in [9], 22 DSS.

As for `Cc1ccc(C(=O)Nc2ccc(CN3CCN(C)CC3)c(C(F)(F)F)c2)cc1C#Cc1cnc2cccnn12` [Ponatinib], the drug sensitivity score was determined as 2.8 DSS in [1]; 2.95 DSS in assay [2]; 1.39 DSS in [3]; 3.2 DSS in assay [4]; 3.2 DSS in assay [5]; 4.93 DSS in [6]. Further, the figures for the drug sensitivity score in assay [7], in assay [8] and in assay [9] were 4.26 DSS, 0 DSS and 2.28 DSS, respectively.

Take `COc1cc(Nc2c(C#N)cnc3cc(OCCCN4CCN(C)CC4)c(OC)cc23)c(Cl)cc1Cl` [Bosutinib]: the drug sensitivity score is 8.4 DSS in assay [1]; 0.775 DSS in [2]; 7.49 DSS in assay [3]; 7.49 DSS in assay [4]; 6.47 DSS in assay [5]; 5.37 DSS in assay [6]. The drug sensitivity score stood at 5.38 DSS in [7], 5.08 DSS in assay [8] and 5.25 DSS in assay [9].
